The text below walks through data of patent publication US10364222B2, “Cyclic amine derivative and medical use thereof” (Toray Industries, Inc., priority 2016, dated 2019).

The target in assay [1] is T1, ligand-binding domain of RORγ (RORγ-LBD) (Homo sapiens, UniProt P51449).
T1 construct: purchased Invitrogen
T1 sequence (P51449 269-508 limits assumed): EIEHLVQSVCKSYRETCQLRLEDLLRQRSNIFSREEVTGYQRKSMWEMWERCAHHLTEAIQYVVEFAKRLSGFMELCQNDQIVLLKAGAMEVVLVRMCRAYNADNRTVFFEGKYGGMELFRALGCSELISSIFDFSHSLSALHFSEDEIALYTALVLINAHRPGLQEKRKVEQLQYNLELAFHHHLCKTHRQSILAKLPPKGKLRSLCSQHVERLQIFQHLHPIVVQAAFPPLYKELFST
Kind of assay: Inhibitory effect on RORγ-coactivator binding (LanthaScreen TR-FRET RORγ Coactivator Assay). The note with it: at 33 μmol/L of the test compound; read-out: RORγ-coactivator binding inhibition rate (%). The essentials:
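TR-FRET: 4 nmol/L GST-RORγ-LBD with compound (1% DMSO) in Coregulator Buffer D plus 5 mmol/L DTT, then 150 nmol/L fluorescein-TRAP220/DRIP-2 and 32 nmol/L Tb-anti-GST antibody; 16–24 hours at room temperature. 520/495 nm ratio (320 nm excitation), background-corrected against control, gives % inhibition of coactivator binding.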
(In TR-FRET formats the signal depends on donor and acceptor labels being close together.)

The subject of assay [2] is imiquimod-induced mouse psoriasis model. Kind of assay: Imiquimod-induced mouse psoriasis model. It is filed as in vivo. The note with it: BALB/c mice; 10 mg/kg orally once daily from 3 to 7 days after induction; vs vehicle, Student's t-test P<0.05. The protocol:
Using increase in the ear thickness as an index of exacerbation of symptoms, the effect of the cyclic amine derivative (I) or a pharmacologically acceptable salt thereof in an imiquimod-induced mouse psoriasis model was evaluated. The imiquimod-induced mouse psoriasis model was prepared by a partially modified method by Schaper et al. (The Journal of Dermatological Science, 2013, Vol. 71, No. 1, p. 29-36).
BALB/c mice (male, 7 weeks old) (Charles River Laboratories Japan, Inc.) were used at 8 weeks old after preliminary breeding. To induce psoriasis-like symptoms, 5 mg each of BESELNA CREAM 5% was applied once daily to the outside of the right and left auricles of the mice for 8 days from the day of first administration of imiquimod (hereinafter referred to as induction day) to 7 days after induction (dose of imiquimod, 0.5 mg/body/day).
The test compound at a dose of 10 mg/kg was administered to the mice once daily for 5 days from 3 days after induction to 7 days after induction. As the test compound, the compound of Example 20, the compound of Example 29, and the compound of Example 57 were used. The compound of Example 20, the compound of Example 29, and the compound of Example 57 were suspended in a 0.5 w/v % methylcellulose solution and orally administered. The group in which the compound of Example 20 was administered to mice was defined as the Example-20 compound administration group, the group in which the compound of Example 29 was administered was defined as the Example-29 compound administration group, and the group in which the compound of Example 57 was administered was defined as the Example-57 compound administration group. In the vehicle administration group, a vehicle of each test compound (0.5 w/v % methylcellulose solution) was similarly administered.
The right and left ear thickness before administration of imiquimod (before induction) on the induction day and the right and left ear thickness on the 8th day after induction were measured with a digital micrometer (Mitutoyo Corporation). […]

One may read the inhibition as the change of the read-out against control, counted positive when it falls. Take `CC(=O)N1CCCC[C@@H]1C(=O)Nc1ccc(-c2ccccc2OC(F)(F)F)c(Cl)c1` [Example 20, (R)-1-acetyl-N-(2-chloro-2′-(trifluoromethoxy)-[1,1′-biphenyl]-4-yl)piperidine-2-carboxamide]: the inhibition at 33 µM in assay [1] was 101%. The “change in the ear thickness (ear thickness on the 8th day after induction − before induction)” value (“change in the ear thickness” for short) in assay [2] is “statistically significantly suppressed”.
On to `CN(CC(=O)N1CCCC[C@@H]1C(=O)Nc1ccc(-c2ccccc2OC(F)(F)F)c(Cl)c1)S(C)(=O)=O` [Example 29, (R)-N-(2-chloro-2′-(trifluoromethoxy)-[1,1′-biphenyl]-4-yl)-1-(2-(N-methylmethylsulfonamide)acetyl)piperidine-2-carboxamide], for which the inhibition at 33 µM in assay [1] is 101%. In addition, in assay [2], the “change in the ear thickness” value was “statistically significantly suppressed”.
With `O=C(Nc1ccc(-c2ccccc2OC(F)(F)F)c(Cl)c1)[C@H]1CCCCN1C(=O)Cn1cnnn1` [Example 57, (R)-1-(2-(1H-tetrazol-1-yl)acetyl)-N-(2-chloro-2′-(trifluoromethoxy)-[1,1′-biphenyl]-4-yl)piperidine-2-carboxamide], in assay [1], the inhibition at 33 µM is 103%. Further, the “change in the ear thickness” value in assay [2] is recorded as “statistically significantly suppressed”.
